Measured values reported in PubChem BioAssay (NCI).
Several values for one entry are separate records, joined by “and”; a condition that tells them apart may be missing. Identical values can stand only once.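 Step 1: Grow cells in 96-well plates. Step 2: Expose to compound for 48 hours at 5 concentrations. Step 3: Interpolate endpoints linearly; if unreached, use highest concentration. GI50: concentration for 50% inhibition of growth. Definition used: TGI = concentration required for complete inhibition of growth.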 *1 amine or outer side, *2 acyl side, *3 side chain or, on linkers, in order; H or OH if unused. Where a SMILES comes first, the peptide text is derived from it. Bridges are numbered along the chain shown (N, C = ends). Roman numbers before positions name the chains, in order. [ ]: non-standard residue; d: D form. Actinocin(1to9) = Cc1c2oc3c(C)ccc(C(=O)[*:2])c3nc-2c(C(=O)[*:1])c(N)c1=O; NMeV = CN[CH](C(=O)O)C(C)C; Sar = CNCC(=O)O

Tests used:
Assay in all cases: DTP human tumour cell line panel, 48 h
SR leukemia = system: SR leukemia
HCT-116 colon = system: HCT-116 colon
CCRF-CEM leukemia = system: CCRF-CEM leukemia
DU-145 prostate = system: DU-145 prostate
HS 578T breast = system: HS 578T breast
UO-31 renal = system: UO-31 renal
OVCAR-5 ovarian = system: OVCAR-5 ovarian
OVCAR-4 ovarian = system: OVCAR-4 ovarian
COLO 205 colon = system: COLO 205 colon
SW-620 colon = system: SW-620 colon
MOLT-4 leukemia = system: MOLT-4 leukemia
OVCAR-3 ovarian = system: OVCAR-3 ovarian
RXF 393 renal = system: RXF 393 renal
RPMI-8226 leukemia = system: RPMI-8226 leukemia
HT29 colon = system: HT29 colon
UACC-62 melanoma = system: UACC-62 melanoma

Compound	TGI (SR leukemia)	TGI (HCT-116 colon)	TGI (CCRF-CEM leukemia)	TGI (DU-145 prostate)	TGI (HS 578T breast)	TGI (UO-31 renal)	TGI (OVCAR-5 ovarian)	TGI (OVCAR-4 ovarian)	TGI (COLO 205 colon)	TGI (SW-620 colon)	TGI (MOLT-4 leukemia)	TGI (OVCAR-3 ovarian)	TGI (RXF 393 renal)	TGI (RPMI-8226 leukemia)	TGI (HT29 colon)	TGI (UACC-62 melanoma)	GI50 (UO-31 renal)	GI50 (OVCAR-5 ovarian)	GI50 (OVCAR-4 ovarian)	GI50 (OVCAR-3 ovarian)
COC(=O)CSc1cc(Cl)c(C)cc1S(=O)(=O)Nc1n[nH]c(N)n1	> 10 µM	> 10 µM	> 10 µM	> 10 µM	> 10 µM	> 10 µM	> 10 µM	> 10 µM	> 10 µM	> 10 µM	> 10 µM	> 10 µM	> 10 µM	> 10 µM	> 10 µM	–	–	–	–	–
O=c1nc(N2CCCCC2)sc2[nH]c3ccccc3c12	> 100 µM	–	–	> 100 µM	> 100 µM	54.9 µM	24.8 µM	> 100 µM	> 100 µM	> 100 µM	> 100 µM	> 100 µM	–	> 100 µM	> 100 µM	> 100 µM	–	–	–	–
C[n+]1c(-c2ccc(/C=N\Nc3ccnc(N/N=C/c4ccc(-c5cn6ccsc6[n+]5C)cc4)n3)cc2)cn2ccsc21	64.8 µM	–	63.8 µM	78 µM	> 100 µM	> 100 µM	> 100 µM	> 100 µM	66.6 µM	> 100 µM	> 100 µM	> 100 µM	56.3 µM	> 100 µM	> 100 µM	76.4 µM	–	–	–	–
COc1ccc(/C(=N/Nc2nc3ccccc3n2Cc2ccccc2)C(=O)O)cc1	9.88 µM	> 100 µM	27.8 µM	> 100 µM	> 100 µM	76.5 µM	> 100 µM	62.2 µM	> 100 µM	> 100 µM	79.6 µM	> 100 µM	–	55.8 µM	> 100 µM	21.4 µM	–	–	–	–
CC(C)(C)OC(=O)NC(Cc1ccc(OC(C)(C)C)cc1)C(=O)N[C@H]1CC[C@H](C(=O)O)C1 (some centres undefined)	> 100 µM	> 100 µM	> 100 µM	> 100 µM	> 100 µM	–	> 100 µM	–	> 100 µM	> 100 µM	> 100 µM	–	–	> 100 µM	> 100 µM	–	–	–	–	–
c1ccc(CN2C3C4N(Cc5ccccc5)C2C2N(Cc5ccccc5)C(C(N2Cc2ccccc2)N4Cc2ccccc2)N3Cc2ccccc2)cc1	> 100 µM	> 100 µM	> 100 µM	> 100 µM	> 100 µM	–	> 100 µM	–	> 100 µM	> 100 µM	> 100 µM	> 100 µM	> 100 µM	> 100 µM	> 100 µM	> 100 µM	–	–	–	–
COc1ccc(CC2NC(=O)C(NC(=O)c3c4nc5c(C(=O)NC6C(=O)NC(Cc7ccc(OC)cc7)C(=O)N7CCCC7C(=O)N(C)CC(=O)N(C)C(C(C)C)C(=O)OC6C)ccc(C)c5oc-4c(C)c(=O)c3N)C(C)OC(=O)C(C(C)C)N(C)C(=O)CN(C)C(=O)C3CCCN3C2=O)cc1 (centres undefined) (I: TY(Me)P[Sar][NMeV] / II: TY(Me)P[Sar][NMeV]; ester I:1-I:C, II:1-II:C; linker I:N-II:N via Actinocin(1to9); configuration not given here)	< 0.001 µM	–	0.0418 µM	0.0843 µM	0.265 µM	0.46 µM and 0.257 µM	0.419 µM and 0.67 µM	0.49 µM and 0.224 µM	0.0172 µM	–	–	0.025 µM and 0.0737 µM	0.0203 µM	–	0.0174 µM and 0.0463 µM	0.00628 µM and 0.0307 µM	0.0327 µM	0.0302 µM	0.0138 µM	< 0.001 µM
